Data: EP4707279A1, “SUBSTITUTED TRICYCLIC HETEROCYCLIC COMPOUND AS PHARMACEUTICAL FOR TREATMENT OR PREVENTION OF COVID-19” (priority 2023, dated 2024)

Test system: SARS-CoV-2
Test: CPE inhibition assay, anti-SARS-CoV-2 virus activity in vitro (Test Example 4)
Assay type: cell-based
Details: for inhibition at 10 µM: Severe acute respiratory syndrome coronavirus 2, VeroE6/TMPRSS2, 72 h, read-out: Anti SARS-CoV-2 activity; for Anti SARS-CoV-2 activity: CPE inhibition at 10 µM, VeroE6-TMPRSS2 cells, MOI 0.01, third day post infection, average of three tests

| Molecule | inhibition at 10 µM [%] | Anti SARS-CoV-2 activity |
| --- | --- | --- |
| CCOC(=O)[C@@H]1CCC2=C3N(Cc4ccccc4)C(=O)N(Cc4ccccc4)C(=O)N3[C@H](Cc3ccccc3)C(=O)N21 (stereo in doubt) [Compound 4B, Ethyl (6R,9S)-1,3,6-tribenzyl-2,4,7-trioxo-1,3,4,6,7,9,10,11-octahydro-2H-pyrrolo[2',1':3,4] pyrazino[1,2-a][1,3,5]triazine-9-carboxylate] | > 5 |  |
| CCOC(=O)[C@@H]1CC[C@H]2N1C(=O)[C@@H](CC)N1C(=O)N(Cc3ccccc3)C(=O)N(Cc3ccccc3)[C@]21O [Compound 29A, Ethyl (6R,9S,11aR,11bR)-1,3-dibenzyl-6-ethyl-11b-hydroxy-2,4,7-trioxodecahydro-2H-pyrrolo[2',1':3,4]pyrazi no[1,2-a][1,3,5] triazine-9-carboxylate] | > 5 |  |
| CC(C)[C@@H]1C(=O)N2[C@H](C3=NCc4cn(-c5c[nH]c6ccccc56)c5cccc3c45)CC[C@@H]2[C@@]2(O)N(Cc3ccccc3)C(=O)N(Cc3ccccc3)C(=O)N12 [Compound 3H, (6R,95,11aR,11bR)-9-(1-((1H-indole-3-yl))-1,3-dihydropyrrolo[4,3,2-de]isoquinolin-5-yl)-1,3-dibenzyl-11b-hydroxy-6-isopropylhexahydro-2H-pyrrolo [2',1':3,4]pyridazine [1,2-a][1,3,5] triazine-2,4,7 (3H. 6H)-trione] |  | A (a CPE inhibition effect of 5% or more) |
| CC(C)[C@@H]1C(=O)N2[C@H](C(=O)NCc3ccccc3)CC[C@@H]2[C@@]2(O)N(Cc3ccccc3)C(=O)N(Cc3ccccc3)C(=O)N12 [Compound 3F, (6R,9S,11aR,11bR)-N,1,3-tribenzyl-11b-hydroxy-6-isopropyl-2,4,7-trioxodecahydro-2H-pyrrolo[2',1':3,4]pyrazino[1,2-a][1,3,5]triazine-9-carboxamide] | > 5 |  |
| O=C(NCc1ccc2ccccc2c1)[C@@H]1CC[C@H]2N1C(=O)C1(Cc3ccccc3C1)N1C(=O)N(Cc3ccccc3)C(=O)N(Cc3ccccc3)C21O (stereo partly drawn) [Compound 21D, (9'S,11a'R)-1',3'-Dibenzyl-11b'-Hydroxy-N-(naphthalen-2-ylmethyl)-2',4',7'-trioxo-1,1',3,3',4',9',10',11',11a',1 1b'-decahydro-2'H,7'H-spiro[indene-2,6'-pyrrolo[2',1':3,4]pyrazino[1,2-a][1,3,5]triazine]-9'-carboxamide] | 1 to 5 |  |
| CC(C)[C@@H]1C(=O)N2[C@H](C(=O)NCc3cnc4ccccc4c3)CC[C@@H]2[C@@]2(O)N(Cc3ccco3)C(=O)N(Cc3ccco3)C(=O)N12 [Compound 28F, (6R,9S,11aR,11bR)-1,3-bis(2-furylmethyl)-11b-hydroxy-6-isopropyl-2,4,7-trioxo-N-(3-quinolylmethyl)decahydro-2H-pyrrolo[2',1':3,4]pyrazino[1,2-a][1,3,5]triazine-9-carboxamide] | > 5 |  |
| (6R,9S,11aR,11bR)-1,3-Dibenzyl-11b-hydroxy-6-isopropyl-2,4,7-trioxo-phenyl-deca-hydro-2H-pyrrolo [2',1':3,4]pyrazino[1, 2-a][1,3,5]triazine-9-carboxamide [Compound 3G] |  | A (a CPE inhibition effect of 5% or more) |
| CC(C)OC(=O)[C@@H]1CC[C@H]2N1C(=O)[C@@H](Cc1ccccc1)N1C(=O)N(Cc3cccs3)C(=O)N(Cc3cccs3)[C@]21O [Compound 18G, Isopropyl (6R,9S,11aR,11bR)-6-benzyl-11b-hydroxy-2,4,7-trioxo-1,3-bis(thiophen-2-ylmethyl)decahydro-2H-pyrrolo [2',1':3,4]pyridazine[1,2-a][1,3,5]triazine-9-carboxylate] |  | A (a CPE inhibition effect of 5% or more) |
| O=C(O)[C@@H]1CC[C@H]2N1C(=O)[C@@H](Cc1ccccc1)N1C(=O)N(Cc3ccccc3)C(=O)N(Cc3ccccc3)[C@]21O [Compound 1C, (6R,9S,11aR,11bR)-1,3,6-Tribenzyl-11b-hydroxy-2,4,7-trioxo-2H-pyrrolo[2',1':3,4]pyridazino[1,2-a][1,3,5] triazine-9-carboxylic acid] |  | C (less than 1%) |
| (6 R,9 S,11aR,11bR)-1,3-Dibenzyl-N-(bicyclo[1,1,1]penta n-1-yl) 11b-Hydroxy-6-isopropyl-2,4,7-trioxodecahydro- 2H-pyrrolo [2",1":3,4]pyrazino[ 1,2-a][1,3,5] triazine-9-carboxamide [Compound 3I] |  | A (a CPE inhibition effect of 5% or more) |
| CCOC(=O)[C@@H]1CC[C@H]2N1C(=O)[C@@H](Cc1ccc3ccccc3c1)N1C(=O)N(Cc3ccccc3)C(=O)N(Cc3ccccc3)[C@]21O [Compound 7A, Ethyl (6R,9S,11aR,11bR)-1,3-dibenzyl-11b-hydroxy-6-(naphthalen-2-ylmethyl)-2,4,7-trioxodecahydro-2H-pyrrolo[2',1' :3,4]pyrazino[1,2-a][1,3,5]triazine-9-carboxylate] | < 1 |  |
| Ethyl (6R,9S,11aR,11bR)-1,3-dibenzyl-11b-hydroxy-6-methyl-2,4,7-trioxodecahydro-2H-pyrrolo[2',1':3,4]pyrazino[1,2-a] [1.3.5]triazine-9-carboxylate [Compound 2A] |  | C (less than 1%) |
| O=C1[C@@H](Cc2ccccc2)N2C(=O)N(Cc3ccccc3)C(=O)N(Cc3ccccc3)C2=C2CCCCN12 [Compound 13B, (R) 1,3,6-Tribenzyl-9,10,11,12-tetrahydropyrido[2',1':3,4] pyrazino[1,2-a][1,3,5]triazine-2,4,7(1H,3H,6H)-trione] | 1 to 5 |  |
| (6R,9S,11aR,11bR)-6-benzyl-11b-hydroxy-N-(naphthalen-2-ylmethyl)-2 ,4,7-trioxo-1,3-bis (thien-2-ylmethyl) decahydro-2H-pyrrolo [2',1':3,4]pyridazino[1,2-a] [1.3,5]triazine-9-carboxamide [Compound 18D] |  | C (less than 1%) |
| O=C(NCc1ccc2ccccc2c1)[C@@H]1CC[C@H]2N1C(=O)[C@@H](Cc1ccccc1)N1C(=O)N(CC3CCCC3)C(=O)N(CC3CCCC3)[C@]21O [Compound 17D, (6R,9S,11aR,11bR)-6-Benzyl-1,3-bis (cyclopentylmethyl)-11b-h ydroxy-N-(naphthalen-2-ylmethyl)-2,4,7-trioxodecahydro-2H-pyrrolo[2',1':3,4] pyridazino[1,2-a][1,3,5] triazine-9-carboxamide] |  | A (a CPE inhibition effect of 5% or more) |
| O=C1[C@H](Cc2ccccc2)N2C(=O)N(Cc3ccccc3)C(=O)N(Cc3ccccc3)C2=C2C[C@@H](OCc3ccccc3)CN12 [Compound 11B, (6S,10R)-1,3,6-Tribenzyl-10-(benzoxy)-1,9,10,11-tetrahydro-2 H-pyrrolo[2',1':3,4]pyridazino [1,2-a][1,3,5]triazine-2,4,7 (3H,6H)-trione] | > 5 |  |
| (6R,10R.11aS)-1,3.6-tribenzyl-10-(benzyl oxy)-11b-hydroxyhexahydro-2H-pyrrolo [2',1':3,4]pyridazino[1,2-a][1,3,5 triazine-2,4,7(3H.6H)-trione [Compound 14A] |  | B (a CPE inhibition effect of less than 5% but 1% or more) |
| Ethyl (6S,9R,11aS)-6-benzyl-11b-hydroxy-2,4.7-trioxo-1,3-bis(thiophen-2-ylmethyl) decahydro-2H-pyrrolo[2',1':3,4] pyrazino[1,2-a][1,3,5] triazine-9-carboxylate [Compound 23A] |  | A (a CPE inhibition effect of 5% or more) |
| (6R,9S,11aR,11bR)-1,3-Dibenzyl-11b-hydroxy-6-(4 -methoxybenzyl)-N-(naphthalen-2-ylmethyl)-2,4,7-trioxodecahydro-2H-pyrrolo[2',1':3,4] pyridazino[1,2-a][1.3.5] triazine-9-carboxamide [Compound 6D] |  | B (a CPE inhibition effect of less than 5% but 1% or more) |
| (6S,11a8)-1,3,6-tribenzyl-11b-hydroxy-11a-methylhexahydro-2H-pyrrolo[2',1':3,4]pyrazino [1,2-a][1,3,5]triazine-2,4,7(3H,6 H)-trione [Compound 12A] |  | B (a CPE inhibition effect of less than 5% but 1% or more) |
| O=C(NCc1ccc2ccccc2c1)[C@@H]1CCC2=C3N(Cc4ccccc4)C(=O)N(Cc4ccccc4)C(=O)N3[C@H](Cc3ccc4ccccc4c3)C(=O)N21 [Compound 7E, (6R,9S)-1,3-Dibenzyl-N,6-Bis(naphthalen-2-ylmethyl) -2,4,7-trioxo-1,3,4,6,7,9,10, 11-octahydro-2H-pyrrolo [2',1':3,4]pyrazino[1,2-a] [1,3,5]triazine-9-carboxamide] | 1 to 5 |  |
| Ethyl (6S,9R,11aS,11bS)-1,3,6-tribenzyl-11b-hydroxy-2,4.7-trioxodecahydro-2H-pyrrolo [2',1':3,4]pyrazino[1,2-a][1,3,5] triazine-9-carboxylate [Compound 4A] |  | C (less than 1%) |
| (6R,9S,11aR,11bR)-1,3-Dibenzyl-11b-hydroxy-N,6-bis(naphthalen-2-ylmethyl)-2.4.7-trioxodecahydro-2H-pyrrolo[2'.1':3,4] pyrazino[1,2-a][1,3,5] triazine-9-carboxamide [Compound 7D] |  | B (a CPE inhibition effect of less than 5% but 1% or more) |
| (6S,13aS)-1,3,6-tribenzyl-13b-hydroxy-1,13,13a,13b-tetrahydro-2H-[1,3,5] triazino[2',1':3,4]pyraz ino[1,2-a]indole-2,4.7(3H,6H)-trione [Compound 24A] |  | C (less than 1%) |
| O=C(NCc1ccc2ccccc2c1)[C@@H]1CCC2=C3N(Cc4ccccc4)C(=O)N(Cc4ccccc4)C(=O)N3[C@H](Cc3ccccc3)C(=O)N21 [Compound 1E, (6R,9S)-1,3,6-Tribenzyl-N-(naphthalen-2-ylmethyl)-2,4,7-trioxo-1,3,4,6,7,9,10,11-octahydro-2H-pyrrolo[2',1':3,4] pyrazino[1,2-a][1,3,5]triazine-9-carboxamide] | < 1 |  |
| (6R,9S,11aR)-11b-Hydroxy-6-isopropyl-N-(naphthalen-2-ylmethyl)-2,4,7-trioxo-1,3-bis(thien-2-ylmethyl)decahydro- 2H-pyrrolo[2',1':3,4] pyridazine[1,2-a][1,3,5] triazine-9-carboxamide [Compound 27D] |  | A (a CPE inhibition effect of 5% or more) |
